Laboratory results as given in PubChem BioAssay (NCI).
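Five concentrations, 48 hours, 96-well plates. GI50 is the concentration that inhibits growth by half. TGI denotes the concentration required for complete inhibition of growth.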

Legend:
Assay in all cases: NCI-60 cell line screen, 48 h
[1] = test system: HOP-92 NSCLC
[2] = test system: MDA-MB-435
[3] = test system: OVCAR-4 ovarian
[4] = test system: NCI-H460 lung
[5] = test system: BT-549 breast
[6] = test system: HCC-2998 colon
[7] = test system: HCT-116 colon
[8] = test system: OVCAR-5 ovarian
[9] = test system: SK-MEL-2 melanoma
[10] = test system: CAKI-1 renal

SMILES | GI50 [1] [µM] | TGI [1] [µM] | GI50 [2] [µM] | TGI [2] [µM] | GI50 [3] [µM] | TGI [3] [µM] | GI50 [4] [µM] | TGI [4] [µM] | GI50 [5] [µM] | TGI [5] [µM] | GI50 [6] [µM] | TGI [6] [µM] | GI50 [7] [µM] | TGI [7] [µM] | GI50 [8] [µM] | TGI [8] [µM] | GI50 [9] [µM] | TGI [9] [µM] | TGI [10] [µM] | GI50 [10] [µM]
CC1(C)Cc2c(Br)c(Br)c(Br)c(OCC(O)CN3CCN(c4ccccn4)CC3)c2O1 (centres undefined) | 4.87 | 19.8 | 14.3 | 33.6 | 12.1 | 26.7 | 9.43 | 22.9 | 11.6 | 26 | 3.68 | 13.7 | 5.8 | 23.5 | 16.2 | 31.3 | 4.95 | 19.2 |  | 
CN(C)c1cccc(F)c1C(=O)NC(=O)Nc1ccc(Cl)cc1 |  | > 100 |  | 3.44 |  | > 100 |  | > 100 |  | > 100 |  | 28.3 |  | > 100 |  | > 100 |  | > 67.9 | 99 | 
COCCOCCOCc1n(Cc2ccc3ccccc3n2)c2ccccc2[n+]1Cc1ccc2ccccc2n1 | 0.217 | 2.74 | 0.387 | 10.8 | 0.373 | 13.3 | 1.87 | 12.4 | 0.369 | 4.42 | 0.912 | 14.4 | 1.26 | 11.7 | 2.5 | 18 | 0.447 | 2.39 |  | 
NC1(Cc2ccc(Cl)cc2)CCN(c2ncnc3[nH]ccc23)CC1 | 1.09 | 7.06 | 4.67 | 18.1 | 17.6 | 60.5 | 2.31 | 13.3 | 3.45 | 16.3 | 3.89 | 17 | 5.18 | 38.7 | 8.33 | 43.6 | 14.6 | 31 | 19.3 | 3.94
CCOc1ccc2c(c1)c(CC(=O)O)cn2C |  | > 100 |  | > 100 |  |  |  | > 100 |  | > 100 |  | > 100 |  | > 100 |  |  |  | > 100 | > 100 | 
COc1cc2oc3c(c(=O)c2c(O)c1/C=C/C(C)C)C(C=C(C)C)Oc1cc(O)ccc1-3 (centres undefined) |  | 29.3 |  | 30.8 |  | 31.5 |  | 30.9 |  | 23.4 |  | 25.2 |  | 28.1 |  | 31.1 |  | 29.9 | 32.2 | 
C/C(=N\NC(=S)N1CCCCCC1)c1cccc2cccnc12 |  | > 100 |  | > 100 |  | > 21.4 |  | > 100 |  | > 92.4 |  | > 100 |  | > 67.1 |  | > 100 |  | > 100 | 2.42 | 
CN(CCCCCl)P(=O)(OCc1ccc([N+](=O)[O-])o1)OCC1OC(n2cnc([N+](=O)[O-])c2N)C(O)C1O (centres undefined) | > 100 | > 100 | > 100 | > 100 | > 100 | > 100 | > 100 | > 100 | > 100 | > 100 | > 100 | > 100 | > 100 | > 100 | > 100 | > 100 | > 100 | > 100 | > 100 | > 100
